Reference: patent publication US20230295162A1 (EÖTVÖS LORÁND TUDOMÁNYEGYETEM, priority 2020, published 2023)
Read-outs that look alike come from different tables or passages of the source.

Tests used:
[1] = tested on: H2228 lung cancer cell line; test: High-throughput screening, CellTiter-Glo cell viability assay at 100 nM; format: cell-based, human; settings: compounds at 100 nM, 72 h, read-out: cytotoxicity expressed in IC50, H2228 (results of High throughput screening)
Procedure: (§1) EBC-1 (obtained from JRCB, https://cellbank.nibiohn.go.jp/english/) and H2228 (obtained from ATCC https://www.lgcstandards-atcc.org/) cell lines were maintained according to the instructions provided by JRCB and ATCC in a 5% CO2 humidified incubator maintained at 37° C. temperature. Effect of compounds on cell viability was measured via CellTiter-Glo® luminescent cell viability assay (Promega, Madison, WI, USA). Cells were plated at 1000 cells/well onto a flat-bottomed, white 96 well plate (BRANDplates, cat. no.: 781965). After 24 h, cells were treated for 72 h with the compounds at 100 nM concentration. After the treatment, medium was removed and CellTiter-Glo® reagent was added. Untreated cells were used as control. The luminescence signal was recorded using a microplate reader (BioTek Synergy 2 Multi-Mode Reader, BioTek, Winooski, VT, USA). Cell viability data (% of untreated control cells) was evaluated with Microsoft Excel.

[2] = tested on: EBC-1 lung cancer cell line; test: as above; format: cell-based, human; settings: compounds at 100 nM, 72 h, read-out: cytotoxicity expressed in IC50, EBC-1 (results of High throughput screening)
Procedure: as §1

[3] = tested on: A2058 (human metastatic melanoma) cells; test: Colorimetric alamarBlue assay, long treatment; settings: read-out: cytotoxicity expressed in IC50, A-2058
[4] = tested on: COLO-205 (human colorectal adenocarcinoma) cells; test: Colorimetric alamarBlue assay, long treatment; settings: COLO 205, 72 h, read-out: cytotoxicity expressed in IC50, COLO-205
[5] = tested on: PANC-1 (human pancreatic carcinoma) cells; test: Impedance-based viability assay (xCELLigence SP), long treatment; format: cell-based; settings: 72 h, read-out: cytotoxicity expressed in IC50, PANC-1
Text: (Gibco®/Invitrogen Corporation, New York, NY, USA).
Data obtained from each experiment represent mathematical averages.

| Compound | IC50 ([1]; HTS) | IC50 ([2]; HTS) | IC50 ([3]; alamarBlue, 72 h) | IC50 [4] | IC50 ([1]; Homo sapiens, NCI-H2228, HTS) | IC50 ([2]; Homo sapiens, EBC-1, HTS) | IC50 [5] | IC50 ([3]; Homo sapiens, A2058, 72 h) |
| --- | --- | --- | --- | --- | --- | --- | --- | --- |
| 7-Benzyl-4-(4-(4-ferrocenyl-1H-1,2,3-triazol-1-yl)benzyl)-2,4,6,7,8,9-hexahydroimidazo[1,2-a]pyrido[3,4-e]pyrimidin-5(1H)-one [I/121] | > 100 nM | > 100 nM | 2.5 µM |  |  |  |  |  |
| O=C1C2=C(CCN(Cc3ccccc3)C2)N2CCN=C2N1Cc1ccccc1F [I/2, reference compound] |  |  |  | 9.97 µM | > 100 nM | > 100 nM | 4.18 µM | 2.95 µM |
| Cc1ccccc1CN1C(=O)C2=C(CCN(Cc3ccc(F)c(F)c3F)C2)N2CCN=C12 [I/10] |  |  |  | > 10 µM |  |  | > 10 µM | > 10 µM |
| O=C1C2=C(CCN(Cc3ccccc3)C2)N2CCN=C2N1Cc1ccccc1I [I/11] |  |  |  | > 10 µM | > 100 nM | > 100 nM | > 10 µM | > 10 µM |
| O=C1C2=C(CCN(Cc3ccccc3)C2)N2CCN=C2N1Cc1ccc(F)c(F)c1F [I/29] |  |  |  | > 10 µM |  |  | 0.66 µM | > 10 µM |
| Cc1ccccc1CN1C(=O)C2=C(CCN(Cc3ccc(C(F)(F)F)c(F)c3)C2)N2CCN=C12 [I/43] |  |  |  | > 10 µM | > 100 nM | > 100 nM | > 10 µM | > 10 µM |
| O=C1C2=C(CCN(Cc3ccccc3)C2)N2CCN=C2N1CCc1cccc(F)c1 [I/44] |  |  |  | > 10 µM |  |  | > 10 µM | > 10 µM |
| Cc1ccccc1CN1C(=O)C2=C(CCN(CCc3cccc(F)c3)C2)N2CCN=C12 [I/45] |  |  |  | > 10 µM |  |  | > 10 µM | > 10 µM |
| O=C1C2=C(CCN(Cc3ccccc3)C2)N2CCN=C2N1Cc1ccc([N+](=O)[O-])cc1F [I/48] |  |  |  | 25 µM | > 100 nM | > 100 nM | 6.16 µM | 0.5 µM |
| Cc1ccccc1CN1C(=O)C2=C(CCN(Cc3cccc(F)c3)C2)N2CCN=C12 [I/53] |  |  |  | 2 µM | > 100 nM | > 100 nM | 2 µM |  |
| O=C1C2=C(CCN(Cc3ccccc3F)C2)N2CCN=C2N1Cc1ccc(I)cc1 [I/54] |  |  |  | 2 µM |  |  | 1.8 µM |  |
| O=C1C2=C(CCN(Cc3ccc(F)cc3)C2)N2CCN=C2N1Cc1ccc(I)cc1 [I/55] |  |  |  | 1 µM | > 100 nM | > 100 nM | 0.76 µM |  |
| NCc1cccc(CN2CCC3=C(C2)C(=O)N(Cc2ccc(I)cc2)C2=NCCN23)c1 [I/59] |  |  |  |  | > 100 nM | > 100 nM | 0.66 µM |  |
| NCc1cccc(CN2C(=O)C3=C(CCN(Cc4ccc(C(F)(F)F)cc4)C3)N3CCN=C23)c1 [I/68] |  |  |  | > 10 µM | > 100 nM | > 100 nM | > 10 µM | > 10 µM |
| NCc1cccc(CN2C(=O)C3=C(CCN(Cc4ccc(C(F)(F)F)c(F)c4)C3)N3CCN=C23)c1 [I/73] |  |  |  | > 10 µM |  |  | > 10 µM | > 10 µM |
| Nc1cccc(CN2C(=O)C3=C(CCN(Cc4ccccc4)C3)N3CCN=C23)c1 [I/75] |  |  |  |  | > 100 nM | > 100 nM | 6.1 µM | 25 µM |

| Compound | IC50 ([1]; HTS) | IC50 ([2]; HTS) | IC50 ([3]; alamarBlue, 72 h) | IC50 [4] | IC50 ([1]; Homo sapiens, NCI-H2228, HTS) | IC50 ([2]; Homo sapiens, EBC-1, HTS) | IC50 [5] | IC50 ([3]; Homo sapiens, A2058, 72 h) |
| --- | --- | --- | --- | --- | --- | --- | --- | --- |
| Nc1ccc(CN2CCC3=C(C2)C(=O)N(Cc2ccc(C(F)(F)F)cc2)C2=NCCN23)cc1 [I/81] |  |  |  |  | > 100 nM | > 100 nM | 21 µM |  |
| Nc1ccc(CN2C(=O)C3=C(CCN(Cc4cccc(F)c4)C3)N3CCN=C23)cc1 [I/84] |  |  |  |  | > 100 nM | > 100 nM | 23 µM |  |
| Nc1ccc(CN2CCC3=C(C2)C(=O)N(Cc2ccc(F)cc2)C2=NCCN23)cc1 [I/86] |  |  |  |  | > 100 nM | > 100 nM | 25 µM |  |
| Nc1ccc(CN2CCC3=C(C2)C(=O)N(Cc2ccc(I)cc2)C2=NCCN23)cc1 [I/87] |  |  |  |  | > 100 nM | > 100 nM | 16 µM |  |
| COc1cc(CN2C(=O)C3=C(CCN(Cc4ccc(N)cc4)C3)N3CCN=C23)cc(OC)c1OC [I/89] |  |  |  |  | > 100 nM | > 100 nM | 25 µM |  |
| Cc1ccccc1CN1C(=O)C2=C(CCN(Cc3cccc(N=[N+]=[N-])c3)C2)N2CCN=C12 [I/103] |  |  |  |  | > 100 nM | > 100 nM | 0.27 µM | 25 µM |
| [N-]=[N+]=Nc1ccc(CN2C(=O)C3=C(CCN(Cc4ccccc4)C3)N3CCN=C23)cc1 [I/104] |  |  |  | 0.25 µM |  |  | 0.5 µM | 2.5 µM |
| [N-]=[N+]=Nc1ccc(CN2CCC3=C(C2)C(=O)N(Cc2ccc(F)cc2)C2=NCCN23)cc1 [I/109] |  |  |  |  |  |  | 8.9 µM |  |
| [N-]=[N+]=Nc1cccc(CN2CCC3=C(C2)C(=O)N(Cc2ccc(C(F)(F)F)c(F)c2)C2=NCCN23)c1 [I/112] |  |  |  |  | < 100 nM | < 100 nM | 0.1 µM | 25 µM |
| [N-]=[N+]=Nc1cccc(CN2CCC3=C(C2)C(=O)N(Cc2ccc(I)cc2)C2=NCCN23)c1 [I/113] |  |  |  |  | < 100 nM | < 100 nM | 0.25 µM | 0.25 µM |
| COc1cc(CN2C(=O)C3=C(CCN(Cc4ccc(N=[N+]=[N-])cc4)C3)N3CCN=C23)cc(OC)c1OC [I/116] |  |  |  |  | > 100 nM | > 100 nM |  |  |
| [N-]=[N+]=Nc1ccc(CN2CCC3=C(C2)C(=O)N(Cc2ccc(N=[N+]=[N-])cc2)C2=NCCN23)cc1 [I/117] |  |  |  |  | > 100 nM | > 100 nM |  |  |
| [N-]=[N+]=Nc1ccc(CN2CCC3=C(C2)C(=O)N(CC2CNC2)C2=NCCN23)cc1 [I/118] |  |  |  |  | > 100 nM | > 100 nM |  |  |
| [N-]=[N+]=Nc1ccc(CN2CCC3=C(C2)C(=O)N(CC2CCNCC2)C2=NCCN23)cc1 [I/119] |  |  |  |  | > 100 nM | > 100 nM |  |  |
| COCCOc1cc2ncnc(Nc3cccc(-c4cn(-c5ccc(CN6CCC7=C(C6)C(=O)N(Cc6ccccc6C)C6=NCCN67)cc5)nn4)c3)c2cc1OCCOC [I/122] |  |  |  |  | > 100 nM | > 100 nM |  |  |
| COCCOc1cc2ncnc(Nc3cccc(-c4cn(-c5ccc(CN6C(=O)C7=C(CCN(Cc8ccccc8)C7)N7CCN=C67)cc5)nn4)c3)c2cc1OCCOC [I/123] |  |  |  |  | > 100 nM | > 100 nM |  |  |
